System: LPS-induced INOS activity in J774 cells
Assay: LPS-induced iNOS activity in J774 cells (DAF-2 fluorescence)
Type: cell-based, mouse
Conditions: pre-treatment 6 hours prior to and 24 hours subsequent to LPS (typically 1 ug/ml), at sub-nanomolar—nanomolar concentrations
Method: In this assay system, lipopolysaccharide (LPS) was used to induce the expression of INOS in the mouse macrophage cell line, J774. […] This reduction in INOS activity correlated with a reduction in LPS-induced INOS mRNA expression.
Specifically, LPS-induced INOS activity was measured using the following assay conditions. J774 cells were seeded at a density of […] per well, in a black, clear-bottomed, 96 well plate, 24 hours prior to use. The cell culture and the drug dilutions were carried out in complete media, which consisted of DMEM (Dulbecco's modification of Eagle's medium) containing foetal calf serum (10%), glutamine (2 mM), penicillin (100 u/ml) and streptomycin (100 μg/ml). The J774 cells were pre-treated with the PPAR delta activators A and B, or vehicle, for 6 hours prior to, and for 24 hours subsequent to the addition of LPS (typically, a concentration of 1 ug/ml of LPS was used). Twenty-four hours after the addition of LPS, INOS activity was measured by the following method. […] After incubation at 37° C. for 3 hours, fluorescence from each well was measured at an excitation wavelength of 485 nm, and an emission wavelength of 530 nm. The ability of LPS to induce INOS activity, in the presence and absence of PPAR delta activators, was then calculated. […]

SMILES	inhibition of LPS-induced INOS activity
Cc1cc(SCc2sc(-c3ccc(C(F)(F)F)cc3)nc2C)ccc1OCC(=O)O [Compound A, 2-{2-methyl-4-[({4-methyl-2-[4-(trifluoromethyl)phenyl]-1,3-thiazol-5-yl}methyl)sulfanyl]phenoxy}acetic Acid]	marked inhibition
Cc1cc(SCc2sc(-c3ccc(C(F)(F)F)c(F)c3)nc2C)ccc1OCC(=O)O [Compound B, 2-{2-methyl-4-[({4-methyl-2-[3-fluoro-4-(trifluoromethyl)phenyl]-1,3-thiazol-5-yl}methyl)sulfanyl]phenoxy}acetic Acid]	marked inhibition

From patent publication US7084161B2, “Method for treating inflammatory diseases or conditions” (SmithKlineBeecham Corporation, priority 2000, dated 2006)
